Laboratory results as given in publication PMC11272826, “Metabolism of alcohol ethoxylates (AEs) in rat, hamster, and human hepatocytes and liver S9: a pilot study for metabolic stability, metabolic pathway, and metabolites identification in vitro and in silico” (Archives of Toxicology, 2024).

Assays:
[1] = test system: adult males; set-up: method as in Drotman [1980]; settings: ref Drotman [1980], cited from earlier work; for Amounts in the blood / Radioactivity recovered after 144 h in urine, feces, and air: human males, 50 mg capsule; for Excreted within the first 24 h: radiolabeled, human male volunteers
[2] = test system: female Colworth Wistar rats; set-up: method as in Unilever [1978]; settings: 14C-labelled, oral, rat, ref Unilever [1978], cited from earlier work
[3] = test system: hamster hepatocytes; assay: Metabolic stability in cryopreserved hepatocytes (disappearance, half-life, CLint); settings: hamster hepatocytes, range over 1 and 10 µM
Protocol: (§2) The metabolic stability assay was performed in a 48-well plate format (duplicate with cells and single without cells).
(§3) The hepatocytes were thawed and re-suspended in Celsis InVitro KHB medium (pH 7.4). […] The samples were collected and stored at − 20 °C for further analysis.
(§4) The UPLC-Q-Exactive Orbitrap MS system consisted of a Thermo Vanquish Horizon UHPLC with an autosampler, vacuum degasser, photodiode array (PDA) detector (210–500 nm), and column oven coupled to a Q-Exactive Orbitrap Focus mass spectrometer (Thermo Fisher Scientific, Waltham, MA, USA). The analytical column used was a Waters Acquity BEH C8 2.1 × 50 mm with 1.7 particle size (Waters Corp, Milford, MA, USA). The temperature of the column oven was 40 °C, and the injection volume was 4 μl. The aqueous eluent (A) was 0.1% formic acid (B) was acetonitrile. […] The eluent flow rate was 0.5 ml/min and the flow was directed to the MS through a PDA detector. The data acquisition was performed using positive Electrospray Ionization (ESI+) polarity with a capillary voltage of 3000 V. Capillary temperature was 320 °C and auxiliary gas temperature was 500 °C. The mass spectrometer was operated in the data-dependent MS2 mode, which acquires full-scan MS and MS/MS fragment ion data in the same run. Scan was performed with a resolution of 35,000 (full width at half maximum at m/z 200), while an Automated Gain Control target of a million ions, maximum injection time of 100 ms, and a scan range of 100–1000 m/z were used. […] Nitrogen was used as a sheath gas with 50 units, auxiliary gas with 10 units and as a sweep gas with 5 units. Ion chromatograms were extracted from the total ion chromatograms using calculated monoisotopic accurate masses with 5 mDa window. Calibration curves were generated using an external standard. The data were processed with Thermo Xcalibur 4.1.31.9 software.
(§5) The first-order rate constants k (min^−1) of the metabolism were obtained from the slope of time versus ln (% remaining) plots using Excel software. All time points (log-scale) were used in fitting the rate constant k based on visual inspection of the curves.
(§6) The in vitro half-life (t1/2) of the test compound(s) is defined as: t1/2=ln2/k
(§7) CLint,inc = k*V/(M), where V is the volume of the incubation and M is the number of cells or amount of S9 protein in the incubation.

[4] = as above; settings: Syrian, hamster, pooled cryopreserved hepatocytes, pH 7.4
Protocol: as §2, §3, §4, §5, §6, §7

[5] = Metabolic stability in liver S9 fraction (disappearance, half-life, CLint); settings: human
Protocol: The metabolic stability assay was performed in a 48-well plate format (duplicate with cofactors and single without cofactors).
Each incubation contained test compound (final concentration of 1 or 10 µM), liver S9 (1.5 mg/ml protein content), Cofactors (1 mM NADPH + 1 mM UDPGA + 0.2 mM PAPS), MgCl2 (2 mM), and potassium phosphate buffer (100 mM at pH 7.4). […] The incubation was carried out at 37 °C for 60 min with and without cofactors. […] The samples were collected and stored at − 20 °C for further analysis.
(§8) The in vitro metabolism of the five individual homologue AEs (i.e. C8EO4, C10EO5, C12EO4, C16EO8, and C18EO3) was analyzed by liquid chromatography–mass spectrometry (LC–MS). The UPLC-Q-Exactive Orbitrap MS system consisted of a Thermo Vanquish Horizon UHPLC with an autosampler, vacuum degasser, photodiode array (PDA) detector (210–500 nm), and column oven coupled to a Q-Exactive Orbitrap Focus mass spectrometer (Thermo Fisher Scientific, Waltham, MA, USA). The analytical column used was a Waters Acquity BEH C8 2.1 × 50 mm with 1.7 particle size (Waters Corp, Milford, MA, USA). The temperature of the column oven was 40 °C, and the injection volume was 4 μl. The aqueous eluent (A) was 0.1% formic acid (B) was acetonitrile. […] The eluent flow rate was 0.5 ml/min and the flow was directed to the MS through a PDA detector. The data acquisition was performed using positive Electrospray Ionization (ESI+) polarity with a capillary voltage of 3000 V. Capillary temperature was 320 °C and auxiliary gas temperature was 500 °C. The mass spectrometer was operated in the data-dependent MS2 mode, which acquires full-scan MS and MS/MS fragment ion data in the same run. Scan was performed with a resolution of 35,000 (full width at half maximum at m/z 200), while an Automated Gain Control target of a million ions, maximum injection time of 100 ms, and a scan range of 100–1000 m/z were used. […] Nitrogen was used as a sheath gas with 50 units, auxiliary gas with 10 units and as a sweep gas with 5 units. Ion chromatograms were extracted from the total ion chromatograms using calculated monoisotopic accurate masses with 5 mDa window. Calibration curves were generated using an external standard. The data were processed with Thermo Xcalibur 4.1.31.9 software.
as §5, §6, §7

[6] = test system: hamster hepatocytes; assay: Metabolite profiling by LC-MS in hepatocytes; settings: for Number of metabolites detected: hamster hepatocytes
Protocol: as §3, §8

[7] = Metabolic stability in liver S9 fraction (disappearance, half-life, CLint)
Protocol: (§1) Calibration curves were generated using an external standard.
Intrinsic in vitro clearance was calculated as follows: […]

[8] = Metabolic stability in cryopreserved hepatocytes (disappearance, half-life, CLint); settings: Sprague Dawley, rat, pooled cryopreserved hepatocytes, pH 7.4
Protocol: as §2, §3, §4, §5, §6, §7

[9] = Metabolite profiling by LC-MS in buffer (incubation without cells); settings: metabolite profile of C16EO8, 10 µM incubation, 120 min, buffer without cells
Protocol: as §3, §8

[10] = test system: human hepatocytes; assay: Metabolite profiling by LC-MS in hepatocytes; settings: for Number of metabolites detected: human hepatocytes
Protocol: as §3, §8

[11] = test system: rat hepatocytes; assay: Metabolite profiling by LC-MS in hepatocytes; settings: for Number of metabolites detected: rat hepatocytes
Protocol: as §3, §8

[12] = Metabolite profiling by LC-MS in liver S9
Excerpt: as §1

[13] = Metabolic stability in cryopreserved hepatocytes (disappearance, half-life, CLint); settings: human, pooled cryopreserved hepatocytes, pH 7.4
Protocol: as §2, §3, §4, §5, §6, §7

[14] = test system: human hepatocytes; assay: as above; settings: human hepatocytes, range over 1 and 10 µM
Protocol: as §2, §3, §4, §5, §6, §7

[15] = pooled liver S9, pH 7.4, Half-lives t1/2, Liver S9, 1 μM
[16] = metabolite profile of C16EO8, 10 µM incubation, 120 min
[17] = Sprague-Dawley, rat, pooled liver S9, pH 7.4
[18] = Syrian, hamster, pooled liver S9, pH 7.4
[19] = metabolite profile of C16EO8, 10 µM incubation, 60 min, with cofactors
[20] = metabolite profile of C16EO8, 10 µM incubation, 60 min, without cofactors
[21] = metabolite profile of C18EO3, 10 µM incubation, 120 min
[22] = metabolite profile of C18EO3, 10 µM incubation, 60 min
[23] = Sprague-Dawley, rat, s9, pH 7.4

CCCCCCCCCCCCOCCOCCOCCOCCOCCOCCO [C12EO6]
Amounts in the blood [1]: ≤ 1% | Radioactivity recovered after 144 h in urine, feces, and air [1]: 83–89% | Excreted within the first 24 h [1]: 75% | Total recovery in urine, feces, air, and carcass of the administered compound ([2]; 4 days): ~100% | 14C in air [2]: about 10%

CCCCCCCCCCCCCOCCOCCOCCOCCOCCOCCO [C13EO6]
Amounts in the blood [1]: ≤ 1% | Radioactivity recovered after 144 h in urine, feces, and air [1]: 83–89% | Excreted within the first 24 h [1]: 75%

CCCCCCCCCCCCCCCCOCCOCCOCCOCCOCCOCCOCCOCCO [C16EO8]
Initial concentration remaining after 120 min incubation [3]: 4–5% | half-life at 1 µM [4]: 27 min | half-life at 10 µM [4]: 30 min | microsomal CLint at 1 µM ([5]; pooled liver S9, pH 7.4): 3.33 µL/min/mg | half-life at 1 µM [5, 15]: 139 min | Number of metabolites detected [6]: 32 | Hepatocytes, % Hamster (percentage of the total peak area) [6, 16]: 10.6% | half-life at 1 µM [7, 17]: 16 min | microsomal CLint at 1 µM [7, 17]: 29.6 µL/min/mg | half-life at 1 µM [7, 18]: 118 min | microsomal CLint at 1 µM [7, 18]: 3.92 µL/min/mg | half-life at 1 µM [8]: 6.6 min | half-life at 10 µM [8]: 9.2 min | Hepatocytes, % Buffer (percentage of the total peak area) [9]: 29.7% | Number of metabolites detected [10]: 32 | Hepatocytes, % Human (percentage of the total peak area) [10, 16]: 30.3% | Hepatocytes, % Rat (percentage of the total peak area) [11, 16]: 1.0% | Number of metabolites detected [11]: 32 | Number of metabolites detected ([12]; hamster liver S9): 33 | Number of metabolites detected ([12]; human liver S9): 33 | Liver S9 with cofactors, % Hamster (percentage of the total peak area) [12, 19]: 82.7% | Liver S9 with cofactors, % Human (percentage of the total peak area) [12, 19]: 72.0% | Liver S9 with cofactors, % Rat (percentage of the total peak area) [12, 19]: 85.8% | Liver S9 without cofactors, % Hamster (percentage of the total peak area) [12, 20]: 97.4% | Liver S9 without cofactors, % Human (percentage of the total peak area) [12, 20]: 96.6% | Liver S9 without cofactors, % Rat (percentage of the total peak area) [12, 20]: 98.7% | Number of metabolites detected ([12]; rat liver S9): 33 | half-life at 1 µM [13]: 39 min | half-life at 10 µM [13]: 85 min | Initial concentration remaining after 120 min incubation [14]: 11–36%

CCCCCCCCCCCCCCCCCCOCCOCCOCCO [C18EO3]
microsomal CLint at 1 µM ([5]; pooled liver S9, pH 7.4): 15.9 µL/min/mg | half-life at 1 µM [5, 15]: ≥ 29 min | Number of metabolites detected [6]: 4 | Percentage of the total peak area, Hepatocytes, Hamster [6, 21]: 97.5% | half-life at 1 µM [7, 17]: 32 min | microsomal CLint at 1 µM [7, 17]: 14.6 µL/min/mg | half-life at 1 µM [7, 18]: 29 min | microsomal CLint at 1 µM [7, 18]: 16.2 µL/min/mg | Number of metabolites detected [10]: 9 | Percentage of the total peak area, Hepatocytes, Human [10, 21]: 8.9% | Percentage of the total peak area, Hepatocytes, Rat [11, 21]: 98.3% | Number of metabolites detected [11]: 4 | Number of metabolites detected ([12]; human liver S9): 11 | Percentage of the total peak area, Liver S9 with cofactors, Hamster [12, 22]: 79.9% | Percentage of the total peak area, Liver S9 with cofactors, Human [12, 22]: 58.2% | Percentage of the total peak area, Liver S9 with cofactors, Rat [12, 22]: 90.3% | Percentage of the total peak area, Liver S9 without cofactors, Hamster [12, 22]: 100.0% | Percentage of the total peak area, Liver S9 without cofactors, Human [12, 22]: 100.0% | Percentage of the total peak area, Liver S9 without cofactors, Rat [12, 22]: 100.0%

Cc1ncc2n1-c1ccc(Cl)cc1C(c1ccccc1F)=NC2 [midazolam, Midazolam, reference compound]
half-life at 1 µM ([5]; s9, pH 7.4): < 6.3 min | microsomal CLint at 1 µM ([5]; s9, pH 7.4): > 75 µL/min/mg | half-life at 1 µM [7, 23]: 11.8 min | microsomal CLint at 1 µM [7, 23]: 39.1 µL/min/mg | half-life at 1 µM ([7]; Syrian, hamster, s9, pH 7.4): < 6.3 min | microsomal CLint at 1 µM ([7]; Syrian, hamster, s9, pH 7.4): > 75 µL/min/mg
